Two compounds from patent EP0013067A1, “Bicyclic beta-lactam antibacterial agents, their use in pharmaceutical compositions, processes for their preparation and intermediates for use in such processes” (BEECHAM GROUP PLC, priority 1978, dated 1980) can be followed below.

A word on the MIC: it is the least concentration at which growth counts as inhibited.

What all share (assay): MIC, DST agar + 10% horse blood
Common to all, as to assay type: cell-based

In one test the test system is Bacillus subtilis A. As to conditions: Bacillus subtilis A; DST agar + 10% horse blood; inoculum 0.001 ml of a 10^-2 dilution for G + ve bacteria or a 10^-4 dilution for G - ve organisms; read-out: MIC Agar. An excerpt:
(§1) The ninimum inhibitory concentrations (MIC) cf this compound required to inhibit the growth of various bacteria are tabulated balow: […]

The subject of a further test is Citrobacter freundii E8. As to conditions: Citrobacter freundii E8; DST agar + 10% horse blood; inoculum 0.001 ml of a 10^-2 dilution for G + ve bacteria or a 10^-4 dilution for G - ve organisms; read-out: MIC Agar.
Description: as §1

Another test has as its system E. coli ESS. As to conditions: Escherichia coli, inoculum 0.001 ml of a 10^-2 dilution for G + ve bacteria or a 10^-4 dilution for G - ve organisms.
Description: as §1

Another test deals with Enterobacter cloacae N1. As to conditions: Enterobacter cloacae N1; DST agar + 10% horse blood; inoculum 0.001 ml of a 10^-2 dilution for G + ve bacteria or a 10^-4 dilution for G - ve organisms; read-out: MIC Agar.
Description: as §1

The subject of another test is Escherichia coli 0111. The note with it: Escherichia coli 0111, inoculum 0.001 ml of a 10^-2 dilution for G + ve bacteria or a 10^-4 dilution for G - ve organisms.
Description: as §1

The subject of the next test is Escherichia coli JT 39. The note with it: JT39; Escherichia coli JT 39; DST agar + 10% horse blood; inoculum 0.001 ml of a 10^-2 dilution for G + ve bacteria or a 10^-4 dilution for G - ve organisms; read-out: MIC Agar.
Description: as §1

In another test the test system is Klebsiella aerogenes A. As to conditions: Klebsiella aerogenes A; DST agar + 10% horse blood; inoculum 0.001 ml of a 10^-2 dilution for G + ve bacteria or a 10^-4 dilution for G - ve organisms; read-out: MIC Agar.
Description: as §1

The test system of another test is Proteus mirabilis C977. The note with it: Proteus mirabilis C977; DST agar + 10% horse blood; inoculum 0.001 ml of a 10^-2 dilution for G + ve bacteria or a 10^-4 dilution for G - ve organisms; read-out: MIC Agar.
Description: as §1

The subject of the next test is Proteus morganii I580. As to conditions: Morganella morganii; Proteus morganii I580; DST agar + 10% horse blood; inoculum 0.001 ml of a 10^-2 dilution for G + ve bacteria or a 10^-4 dilution for G - ve organisms; read-out: MIC Agar.
Description: as §1

A further test deals with Proteus rettgeri WM16. As to conditions: Providencia rettgeri; Proteus rettgeri WM16; DST agar + 10% horse blood; inoculum 0.001 ml of a 10^-2 dilution for G + ve bacteria or a 10^-4 dilution for G - ve organisms; read-out: MIC Agar.
Description: as §1

The subject of another test is Proteus vulgaris W091. The note with it: Proteus vulgaris W091; DST agar + 10% horse blood; inoculum 0.001 ml of a 10^-2 dilution for G + ve bacteria or a 10^-4 dilution for G - ve organisms; read-out: MIC Agar.
Description: as §1

Another test relates to Pseudomonas aeruginosa A. The note with it: Pseudomonas aeruginosa A; DST agar + 10% horse blood; inoculum 0.001 ml of a 10^-2 dilution for G + ve bacteria or a 10^-4 dilution for G - ve organisms; read-out: MIC Agar.
Description: as §1

Test [1] concerns Salmonella typhimurium CT10. The note with it: Salmonella enterica; Salmonella typhimurium CT10; DST agar + 10% horse blood; inoculum 0.001 ml of a 10^-2 dilution for G + ve bacteria or a 10^-4 dilution for G - ve organisms; read-out: MIC Agar.
Description: as §1

The next test deals with Serratia marcescens US20. As to conditions: Serratia marcescens US20; DST agar + 10% horse blood; inoculum 0.001 ml of a 10^-2 dilution for G + ve bacteria or a 10^-4 dilution for G - ve organisms; read-out: MIC Agar.
Description: as §1

The test system of the next test is Shigella sonnei MB 11967. The note with it: MB11967, inoculum 0.001 ml of a 10^-2 dilution for G + ve bacteria or a 10^-4 dilution for G - ve organisms.
Description: as §1

Test [2] has as its system Staphylococcus aureus 1517. The note with it: Staphylococcus aureus 1517; DST agar + 10% horse blood; inoculum 0.001 ml of a 10^-2 dilution for G + ve bacteria or a 10^-4 dilution for G - ve organisms; read-out: MIC Agar.
Description: as §1

Test [3] relates to Staphylococcus aureus Oxford. As to conditions: Staphylococcus aureus Oxford; DST agar + 10% horse blood; inoculum 0.001 ml of a 10^-2 dilution for G + ve bacteria or a 10^-4 dilution for G - ve organisms; read-out: MIC Agar.
Description: as §1

Test [4] deals with Staphylococcus aureus Russell. The note with it: Staphylococcus aureus Russell; DST agar + 10% horse blood; inoculum 0.001 ml of a 10^-2 dilution for G + ve bacteria or a 10^-4 dilution for G - ve organisms; read-out: MIC Agar.
Description: as §1

In the next test the test system is Streptococcus faecalis I. As to conditions: Enterococcus faecalis; Streptococcus faecalis I; DST agar + 10% horse blood; inoculum 0.001 ml of a 10^-2 dilution for G + ve bacteria or a 10^-4 dilution for G - ve organisms; read-out: MIC Agar.
Description: as §1

Test [5] concerns Streptococcus pneumoniae CN33. As to conditions: Streptococcus pneumoniae CN33; DST agar + 10% horse blood; inoculum 0.001 ml of a 10^-2 dilution for G + ve bacteria or a 10^-4 dilution for G - ve organisms; read-out: MIC Agar.
Description: as §1

Test [6] deals with Streptococcus pyogenes CN10. As to conditions: Streptococcus pyogenes CN10; DST agar + 10% horse blood; inoculum 0.001 ml of a 10^-2 dilution for G + ve bacteria or a 10^-4 dilution for G - ve organisms; read-out: MIC Agar.
Description: as §1

As to `O=C(O)C1=C(CO)SC2CC(=O)N12` (stereo not drawn) [compound 19, Sodium 2-Hydroxymethyl penem-3-carboxylate], the MIC with Bacillus subtilis A came out at 2.5 µg/mL; in the test on Citrobacter freundii E8, 10 µg/mL; in the test with E. coli ESS it was 10 µg/mL; in the test on Enterobacter cloacae N1, 50 µg/mL; in the test on Escherichia coli 0111 it was 10 µg/mL; in the test on Escherichia coli JT 39 it was 10 µg/mL. For the same compound, the MIC was determined as 10 µg/mL in the test with Klebsiella aerogenes A; 25 µg/mL in the test on Proteus mirabilis C977; 25 µg/mL in the test with Proteus morganii I580; 50 µg/mL with Proteus rettgeri WM16; 50 µg/mL with Proteus vulgaris W091; 50 µg/mL in the test with Pseudomonas aeruginosa A. The MIC in test [1] turned out to be 10 µg/mL; with Serratia marcescens US20, 10 µg/mL; with Shigella sonnei MB 11967 it was 10 µg/mL; in [2], 25 µg/mL; in test [3], 2.5 µg/mL; in [4] it was 2.5 µg/mL. For the same compound, the MIC stood at 100 µg/mL in the test on Streptococcus faecalis I, 1 µg/mL in [5] and 1 µg/mL in [6].
With `CC(=O)OCC1=C(C(=O)O)N2C(=O)CC2S1` (stereo not drawn) [compound 21, Sodium 2-Acetoxymethyl penem-3-carboxylate], the MIC with Bacillus subtilis A was 2.5 µg/mL; in the test on Citrobacter freundii E8, 10 µg/mL; in the test with E. coli ESS, 10 µg/mL; in the test with Enterobacter cloacae N1, 100 µg/mL; with Escherichia coli 0111, 25 µg/mL; in the test on Escherichia coli JT 39, 50 µg/mL. The minimum inhibitory concentration (MIC) in the test on Klebsiella aerogenes A is 10 µg/mL; in the test on Proteus mirabilis C977 it was 10 µg/mL; with Proteus morganii I580, 10 µg/mL; in the test with Proteus rettgeri WM16, 50 µg/mL; in the test with Proteus vulgaris W091, 50 µg/mL; in the test with Pseudomonas aeruginosa A, over 100 µg/mL. Further, the MIC was found to be 25 µg/mL in [1]; 25 µg/mL in the test on Serratia marcescens US20; 50 µg/mL in the test with Shigella sonnei MB 11967; 50 µg/mL in test [2]; 10 µg/mL in [3]; 10 µg/mL in [4]. Also, the minimal inhibitory concentration (MIC) worked out at 100 µg/mL in the test on Streptococcus faecalis I, 0.5 µg/mL in test [5] and 2.5 µg/mL in test [6].
